Test: xn = mol fraction of the nth substance listed

C[N+](C)(C)CCC[N+]1(C)CCCCC1.N#C[N-]C#N.N#C[N-]C#N + CO
viscosity [mPa·s], 100 kPa
Details	303.15 K	313.15 K	323.15 K
x1 = 0.0999	–	–	2.735
x1 = 0.7998	918.9	488.5	–

CCCCOP(=O)(O)OCCCC + CC(C)N
297 K, 101 kPa
Details	viscosity [mPa·s]
x2 = 0.15	80
x2 = 0.3	240
x2 = 0.48	4070
x2 = 0.5	4750
x2 = 0.66	260
x2 = 0.85	100

C=C(C)C(=O)OC + CCCCCCCO
viscosity [mPa·s], 101.3 kPa
Details	298.15 K	308.15 K
x1 = 0.0526	4.782	3.544
x1 = 0.1258	3.728	2.828
x1 = 0.2484	2.538	1.991
x1 = 0.3455	1.926	1.546
x1 = 0.4471	1.483	1.213
x1 = 0.5009	1.307	1.078
x1 = 0.5615	1.143	0.95
x1 = 0.6456	0.965	0.81
x1 = 0.7444	0.811	0.685
x1 = 0.8476	0.695	0.588
x1 = 0.9438	0.618	0.522

C=C(C)C(=O)OC + CCC(C)O
viscosity [mPa·s], 101.3 kPa
Details	298.15 K	308.15 K
x1 = 0.0597	2.462	2.057
x1 = 0.1551	1.779	1.481
x1 = 0.255	1.32	1.097
x1 = 0.3562	1.022	0.848
x1 = 0.4561	0.83	0.688
x1 = 0.5021	0.766	0.635
x1 = 0.5571	0.704	0.584
x1 = 0.6562	0.626	0.52
x1 = 0.7557	0.581	0.484
x1 = 0.8552	0.564	0.472
x1 = 0.9549	0.572	0.481

CCCC[P+](C)(CCCC)CCCC.COS(=O)(=O)[O-] + CN1CCCC1=O
101 kPa
Details	viscosity [mPa·s]
293.15 K, x1 = 0.2318	67.31
293.15 K, x1 = 0.6014	285.4
293.15 K, x1 = 0.7129	437.9
293.15 K, x1 = 0.8086	533
293.15 K, x1 = 0.9022	633.1
293.15 K, x1 = 0.9468	676.8
298.15 K, x1 = 0.2318	38.93
298.15 K, x1 = 0.2971	50.57
298.15 K, x1 = 0.3764	80.09
298.15 K, x1 = 0.7129	294.9
298.15 K, x1 = 0.8086	370.8
298.15 K, x1 = 0.8515	411.3
298.15 K, x1 = 0.9022	451.1
298.15 K, x1 = 0.9468	487
303.15 K, x1 = 0.0914	4.938
303.15 K, x1 = 0.1311	7.781
303.15 K, x1 = 0.2971	25.25
303.15 K, x1 = 0.3764	40.12
303.15 K, x1 = 0.4752	65.25
303.15 K, x1 = 0.8086	262.4
303.15 K, x1 = 0.8515	295.9
303.15 K, x1 = 0.9022	328.3
303.15 K, x1 = 0.9468	353.5
308.15 K, x1 = 0.0914	2.514
308.15 K, x1 = 0.1311	3.429
308.15 K, x1 = 0.1773	6.412
308.15 K, x1 = 0.2318	8.924
308.15 K, x1 = 0.4752	30.51
308.15 K, x1 = 0.6014	66.52
308.15 K, x1 = 0.9468	268.4
313.15 K, x1 = 0.1311	3.214
313.15 K, x1 = 0.1773	4.514
313.15 K, x1 = 0.2318	6.789
313.15 K, x1 = 0.7129	95.25
318.15 K, x1 = 0.1311	4.512
318.15 K, x1 = 0.1773	6.412
318.15 K, x1 = 0.2318	7.124
318.15 K, x1 = 0.6014	31.78
318.15 K, x1 = 0.7129	72.62
323.15 K, x1 = 0.0914	2.515
323.15 K, x1 = 0.1311	3.845
323.15 K, x1 = 0.1773	5.672
323.15 K, x1 = 0.7129	59.09
323.15 K, x1 = 0.8086	88.33

Reference: the CheMixHub viscosity set
